Like-named read-outs stand apart in the source and are kept apart here. Where no end group is shown, it is not given here.
Legend:
[1] = tested on: Enterococcus faecalis (DSM2570); test: NCCLS microdilution broth assay (MIC); assay type: cell-based; details: susceptible strain, NCCLS guidelines
Source text: (§1) According to the NCCLS guidelines for susceptibility test of novel antimicrobial compounds, we found a broad spectrum of activity of Cat1 (Methods for Dilution Antimicrobial Susceptibility Tests for Bacteria That Grow Aerobically; Approved Standard-Fifth Edition. NCCLS document M7-A5 (ISBN1-56238-394-9)).

[2] = tested on: Staphylococcus epidermidis (DSM1798); test: NCCLS microdilution broth assay (MIC); assay type: cell-based; details: susceptible strain, NCCLS guidelines
Source text: as §1

[3] = tested on: Bortadella bronchiseptica (ATCC4617); test: NCCLS microdilution broth assay (MIC); assay type: cell-based; details: susceptible strain, NCCLS guidelines
Source text: as §1

[4] = tested on: Klepsiella pneumoniae (ATCC10031); test: NCCLS microdilution broth assay (MIC); assay type: cell-based; details: susceptible strain, NCCLS guidelines
Source text: as §1

[5] = tested on: Proteus mirabilis (ATCC7002); test: NCCLS microdilution broth assay (MIC); assay type: cell-based; details: susceptible strain, NCCLS guidelines
Source text: as §1

[6] = tested on: Bacillus subtilis (ATCC6633); test: NCCLS microdilution broth assay (MIC); assay type: cell-based; details: susceptible strain, NCCLS guidelines
Source text: as §1

bacteria strains = test: NCCLS microdilution broth assay, minimal bactericidal concentration (MBC); assay type: cell-based; details: compared with MIC (<64 μg/ml) of the susceptible strains
Source text: as §1

[7] = tested on: Pseudomonas aeroginosa (ATCC27853); assay type: cell-based, Pseudomonas aeruginosa
Protocol: as §1
(§2) In another campaign, the specific MICs of Cat1 were determined against a variety of microbial strains relevant for wound infections. As recommended in the above-mentioned NCCLS protocol, the strains were grown in cationic adjusted Muller-Hinton Broth. The highest concentration tested was 32 μg/ml.
Minimal inhibitory concentrations of Cat1 were also determined using cation-adjusted Mueller hinton broth (MHB) in the microbroth dilution assay, wherein MHB was used with different modifications as depicted in Table 2 below. The selected test organism was Pseudomonas aeroginosa (ATCC 27853). […]

[8] = tested on: Acinetobacter baumanii ATCC 49137; assay type: cell-based
Protocol: as §1, §2

[9] = tested on: Morganella morganii ATCC 21116; assay type: cell-based
Protocol: as §1, §2

[10] = tested on: Staphyloloccus aureus GISA ATCC 700699; assay type: cell-based
Protocol: as §1, §2

[11] = tested on: Streptotoccus pyogenes ATCC 4543; assay type: cell-based
Protocol: as §1, §2

Staphylococcus camosus = test: Radial Diffusion Assay using minimal conditions (MEC); assay type: cell-based; details: Table 8
Protocol: (§3) A modified version of a previously published protocol has been applied in the detection of antimicrobial activity (Lehrer et al., (1991) Ultra sensitive assays for endogenous antimicrobial polypeptides J Immunol Methods 137: 167-173). Target bacteria (10^6 colony forming units (CFU)) were added to 10 ml of underlay agarose (1% low electro-endosmosis agarose, 0.03% Trypticase soy broth, 10 mM sodium phosphate, pH 7.4, 37 degrees Celsius). Suspension was solidified on an INTEGRID Petri Dish (Becton Dickinson Labware). A 3 mm Gel Puncher was used to make holes in the underlay agarose (Amersham Pharmacia Biotech, Sweden). Samples were added to the holes and incubated at 37 degrees Celsius, 3 hours. An overlay was poured on top and the plate was incubated overnight (LB media, 7.5% Agar). Antimicrobial activity was seen as bacterial clearing zones around the wells. Living cells was counterstained by adding 10 ml, 0.2 mM MTT (3-(4,5-Dimethylthiazol-2-yl)-2,5-diphenyltetrazolium bromide Thiazolyl blue).
(§4) The antimicrobial activity of the polypeptides of the invention was also analyzed in a Radial Diffusion Assay (see Example 1) using minimal conditions. Two bacterial strains were tested in this setup; Staphylococcus camosus and Escherichia coli Top10. The amino acid sequence of the polypeptides and the Minimal Effective Concentration (MEC, microgram/ml) obtained is presented in table 8 below.

Escherichia coli Top10 = test: as above; assay type: cell-based; details: Table 8
Protocol: as §3, §4

[12] = tested on: Klebsiella pneumoniae (DSM681); assay type: cell-based
Protocol: as §1
(§5) The antimicrobial activity of the polypeptides of the invention was analyzed using the Microdilution Broth Assay (see Example 1) with Mueller Hinton Broth (MHB) media. Four different bacterial strains were tested in this setup; Micrococcus luteus (ATCC 9341), Pseudomonas aeruginosa (ATCC 27853), Escherichia coli (ATCC 10536) and Klebsiella pneumoniae (DSM681). The amino acid sequence of the polypeptides and the Minimal Inhibitory concentrations (MIC, microgram/ml) obtained is presented in Table 7 below.

[13] = tested on: Pseudomonas aeroginosa (ATCC27853); test: Radial diffusion assay (MEC); assay type: cell-based; details: susceptible species
Protocol: as §3

[14] = tested on: Eschericia coli (ATCC10536); test: Radial diffusion assay (MEC); assay type: cell-based; details: susceptible species
Protocol: as §3

[15] = tested on: Staphylococcus aureus (ATCC29737); test: Radial diffusion assay (MEC); assay type: cell-based; details: susceptible species
Protocol: as §3

[16] = tested on: Micrococcus luteus (ATCC9341); test: Radial diffusion assay (MEC); assay type: cell-based; details: susceptible species
Protocol: as §3

[17] = tested on: Enterococcus faecalis (DSM2570); test: Radial diffusion assay (MEC); assay type: cell-based; details: susceptible species
Protocol: as §3

[18] = tested on: Staphylococcus epidermidis (DSM1798); test: Radial diffusion assay (MEC); assay type: cell-based; details: susceptible species
Protocol: as §3

[19] = tested on: Bortadella bronchiseptica (ATCC4617); test: Radial diffusion assay (MEC); assay type: cell-based; details: susceptible species
Protocol: as §3

[20] = tested on: Klepsiella pneumoniae (ATCC10031); test: Radial diffusion assay (MEC); assay type: cell-based; details: susceptible species
Protocol: as §3

[21] = tested on: Enterococcus hirae (ATCC10541); test: Radial diffusion assay (MEC); assay type: cell-based; details: susceptible species
Protocol: as §3

[22] = tested on: Proteus mirabilis (ATCC7002); test: Radial diffusion assay (MEC); assay type: cell-based; details: susceptible species
Protocol: as §3

[23] = tested on: Salmonella choleraesuis (DSM9220); test: Radial diffusion assay (MEC); assay type: cell-based; details: susceptible species
Protocol: as §3

[24] = tested on: Bacillus subtilis (ATCC6633); test: Radial diffusion assay (MEC); assay type: cell-based; details: susceptible species
Protocol: as §3

[25] = tested on: Micrococcus luteus (ATCC9341); assay type: cell-based; details: susceptible strain, NCCLS guidelines
Protocol: as §1, §2, §5

[26] = tested on: Salmonella choleraesuis (DSM9220); assay type: cell-based
Source text: as §1

[27] = tested on: Eschericia coil (ATCC10536); assay type: cell-based, Escherichia coli
Protocol: as §1, §5

[28] = susceptible strain, NCCLS guidelines

GLLRRLRKKIGKKLKKIGQKIKPIRILVP [SEQ ID NO: 3]
MIC [1]: < 64 µg/mL | MIC [2]: < 64 µg/mL | MIC [3]: < 64 µg/mL | MIC [4]: < 64 µg/mL | MIC [5]: < 64 µg/mL | MIC [6]: < 64 µg/mL | Minimal bactericidal concentration (MBC) (bacteria strains): in a similar range | MIC ([7]; ATCC27853, pH 5.5): 6 µg/mL | MIC ([7]; ATCC27853, pH 6.5): 6 µg/mL | MIC [7, 28]: < 64 µg/mL | MIC [8]: 8 µg/mL | MIC [9]: 1.5 µg/mL | MIC [10]: 32 µg/mL | MIC [11]: 1.5 µg/mL | MEC (Staphylococcus camosus): 2.5 µg/mL | MEC (Escherichia coli Top10): 8.5 µg/mL | MIC [12]: 32 to 64 µg/mL | Minimal Effective Concentration (MEC) [13]: < 64 µg/mL | Minimal Effective Concentration (MEC) [14]: < 64 µg/mL | Minimal Effective Concentration (MEC) [15]: < 64 µg/mL | Minimal Effective Concentration (MEC) [16]: < 64 µg/mL | Minimal Effective Concentration (MEC) [17]: < 64 µg/mL | Minimal Effective Concentration (MEC) [18]: < 64 µg/mL | Minimal Effective Concentration (MEC) [19]: < 64 µg/mL | Minimal Effective Concentration (MEC) [20]: < 64 µg/mL | Minimal Effective Concentration (MEC) [21]: < 64 µg/mL | Minimal Effective Concentration (MEC) [22]: < 64 µg/mL | Minimal Effective Concentration (MEC) [23]: < 64 µg/mL | Minimal Effective Concentration (MEC) [24]: < 64 µg/mL | MIC [25]: < 64 µg/mL | MIC [26]: < 64 µg/mL | MIC ([27]; ATCC10536): 8 µg/mL | MIC [27, 28]: < 64 µg/mL

— patent US7829524B2, “Antimicrobial peptides” (Novozymes Adenium Biotech A/S, priority 2003, dated 2010)
